# Data reported in a melting point compilation (Tetko et al.; mined from patent text by program, amines drawn as free bases though some values may be those of a salt).
row,Compound,melting point
1,OCc1ccccc1CSc1ccccc1,64 to 65 °C
2,Cc1nc(Cn2cnc3c2c(=O)[nH]c(=O)n3C)no1,262 to 264 °C
3,Cc1nc(NCCSCc2csc(CN(C)C)n2)[nH]c(=O)c1Cc1cccnc1,130 to 131 °C
4,O=C1NNC2=CC(=O)N(c3ccccc3)c3cc(Cl)ccc3N12,110 to 112 °C
5,C=C(c1ccccc1)[C@@H](C)[C@H](NC(=O)C(F)(F)F)C(=O)O,108 °C
6,COc1ccc2c(c1)CC(N(CC(=O)O)C(=O)C(C)CSC(C)=O)CC2 (stereo unspecified),147 to 150 °C
7,N#Cc1cnn(-c2ccc(Cl)c(Cl)c2Cl)c1N,154 to 156 °C
8,O=C(c1ccc(F)cc1)c1nccc(O)c1O,249 to 251 °C
9,Cc1nc(-c2ccccc2)nc(Cl)c1C,120 to 122 °C
10,CCSc1cc(C(C)(C)C)c(O)c(C(C)(C)C)c1,33 °C
11,COc1ccccc1[C@H](c1cccc2ccccc12)[C@@](C)(C#N)C(=O)N1CCC(c2cccc(C(F)(F)F)c2)CC1,123 to 127 °C
12,CCOC(=O)C1c2c([nH]c3ccccc23)C2=C(CCC2)C1C#N (stereo unspecified),192 to 195 °C
13,Cc1nsc(-c2ccc(Cl)nn2)n1,180 °C
14,O=C(Cl)c1cc(Oc2ccc(Br)cc2)cc(C(=O)Cl)c1,80 to 81 °C
15,CN1CC(CCN2C(=O)c3ccccc3C2=O)Oc2ncccc2C1=O (stereo unspecified),146 to 147 °C
16,CCCNC(=S)NS(=O)(=O)c1cc2c(cc1OC)OCCC2CNC(=O)N1CC(C)=C(CC)C1=O (stereo unspecified),96 to 98 °C
17,Cc1c(Br)ccc(S(C)(=O)=O)c1C1=NOC(CCl)(CCl)C1,144 to 145 °C
18,CC(=O)N(CC=C=CC=c1c(C)c2c(n(-c3ccccc3)c1=O)=NN(c1ccccc1)C2=O)c1ccccc1,> 300 °C
19,Cc1c(F)ccc(C#N)c1Cl,63 to 65 °C
20,CC(C(=O)O)c1ccc(Oc2ccc(Cl)cc2)cc1 (stereo unspecified),105 to 107 °C
21,COC(=O)[C@@H]1C(=O)NC[C@H]1c1ccc(Cl)cc1,166 °C
22,CCN(CC)C(=O)CCNC1(c2ccccc2Cl)C(=O)Nc2ccc(Cl)cc21 (stereo unspecified),185 °C
23,CCCc1ccc(S(=O)(=O)c2ccc(F)cc2)cc1S(=O)(=O)NCCc1cccnc1,111 to 113 °C
24,CCCC=C1SC(=S)N(N=c2sc3ccccc3s2)C1=O,236 to 238 °C
25,COc1ccc(S(=O)(=O)C2=C(C(=O)NO)CCC2=CCCc2ccccc2)cc1OC,70 to 73 °C
26,COc1ccc(N2CCN(c3c(C)c(C)c4c(c3C)C(O)(Cc3ccccc3)C(C)(C)O4)CC2)cc1 (stereo unspecified),152 to 153 °C

row,Compound,melting point
1,C=CCOc1ccc(C(=O)Oc2ccc(O[Si](C)(C)C)cc2)cc1,87 °C
2,"CCCCCCCOc1ccc(CCC(CO)(CCC)NC(=O)c2cc([N+](=O)[O-])cc([N+](=O)[O-])c2)cc1 (single isomer, unassigned; (-))",115 to 116 °C
3,COC(=O)c1c(Cl)cc(C(F)(F)F)nc1C(F)(F)F,48 to 49 °C
4,O=[N+]([O-])c1ccc2c(C3=CCN(C[C@H](O)COc4cccc5[nH]ccc45)CC3)c[nH]c2c1,225 to 230 °C
5,CCOC(=O)c1cc2cc(C3=C(c4cnc5[nH]cc(C(=O)C(C)(C)C)c5n4)CCC3)ccc2[nH]1,278 to 280 °C
6,CCc1cc(NC(=O)N2CCC(C(=O)O)(c3ccccc3)CC2)c(OC)nc1C,173 to 174 °C
7,O=S(=O)(Nc1cccc(Nc2nc(NC3CCCC3)c3nc[nH]c3n2)c1)C(F)(F)F,243 to 246 °C
8,Cc1nc2cc(-c3ccc(C=C4SC(=O)NC4=O)cn3)cc(C3CCCCC3)c2o1,314 to 316 °C
9,Cc1ccc(C(=S)NCCCCCCCNC(=S)c2ccc(C)cc2)cc1,181 to 182 °C
10,CC(Oc1ccc(F)cc1)C(=O)O (stereo unspecified),113 to 115 °C
11,CC(=O)C(=[N+]=[N-])C(=O)CCc1ccccc1,30 to 32 °C
12,CCN1C(=O)c2cccnc2N(CC)c2ccccc21,108 to 110 °C
13,O=C(O)Cc1ccc2c(c1)C(=O)Cc1ccccc1C2,171 to 173 °C
14,CC(C)(NCC(O)Cn1ccnc1)c1ccc(Cl)cc1 (stereo unspecified),89 to 91 °C
15,COc1ccc(C(=O)CC(=O)C(C)(C)C)cc1C(=O)CC(=O)C(C)(C)C,69.4 to 70.8 °C
16,O=C(C1CC1)C(C(O)C(Cl)(Cl)Cl)n1cncn1 (stereo unspecified),173 to 175 °C
17,CCCCCCCCCCCCC1=C(O)C(=O)NC1=O,108 to 109 °C
18,CN(C)CCCOc1ccc(C(=O)c2c(-c3ccccc3)oc3ccccc23)cc1,85 to 95 °C
19,COc1ccc(-c2c(C=O)ccc3cc(OC)ccc23)cc1,99 to 101 °C
20,Clc1c(NC2=NCCO2)ccc2[nH]ncc12,223 to 225 °C
21,C=CCNC(=O)Cc1c[nH]c2ccc(CCS(=O)(=O)NC)cc12,123 to 125 °C
22,CC(C)CCN1CNC(=O)C12CCN(Cc1ccccc1)CC2,139 to 140 °C
23,"Cc1cccc(NC(=O)NC2N=C(N3CCCCCC3)c3ccccc3N(C)C2=O)c1 (single isomer, unassigned; (+))",172 to 175 °C
24,Cc1cc(C(N)=O)ncc1C(c1c(F)ccc(F)c1F)S(=O)(=O)CCCC(F)(F)F (stereo unspecified),201 to 203 °C
25,Cc1ccc(CCN2C(=O)COc3ccc(C=C4SC(=S)NC4=O)cc32)cc1,267 to 269 °C
26,CCCCCOc1ccc2cc(C(C)C(=O)O)ccc2c1 (stereo unspecified),97 to 99 °C

row,Compound,melting point
1,C=Cc1c(C)c2cc3nc(c4c5[nH]c(cc6nc(cc1[nH]2)C(C)=C6CC)c(C)c5C(=O)C4)C(CCC(=O)OC)C3C (stereo unspecified),217 to 219 °C
2,CCCCCCCCCCCCCCCCCCOS(=O)(=O)NC(=O)Nc1c(C(C)C)cccc1C(C)C,95 to 98 °C
3,N#Cc1c(-c2cccc(CN)c2)cc(-c2ccccc2O)nc1NC(=O)c1cccs1,203 to 205 °C
4,Cc1nc(-c2ccc(O)cc2)[nH]c1Br,205 to 212 °C
5,CN(N=C(Cl)c1c(F)cccc1F)S(=O)(=O)c1ccccc1,81.5 to 83 °C
6,Cc1cc(-c2noc(C3CC3)n2)cc(C)c1OCCCc1cc(CO)no1,80 to 81 °C
7,CCCc1nc(O)c(-c2ccc(C)cc2)c(O)n1,> 300 °C
8,Cc1cccc(N2C(=O)NCc3cccnc32)c1,212 to 214 °C
9,Cn1cc(C2CCN(CCCCNC(=O)c3sc(-c4ccc(C(F)(F)F)cc4)nc3CO)CC2)c2ccccc21,160 °C
10,CCCCCCCCOc1ccc(-c2ccc(OC(F)F)cc2)cc1,104 °C
11,CC(C)OC(=O)c1ccc(Nc2cccc(Br)c2)c([N+](=O)[O-])c1,162 to 165 °C
12,Cc1ccc(CCCNCC(O)c2cccc(C(F)(F)F)c2)cc1 (stereo unspecified),52 to 55 °C
13,CCCCCCCCC(=N)NC(=S)Nc1ccc(Cl)cc1,102 to 103 °C
14,Cc1cc(O)ccc1Nc1nc(N)ncc1Oc1ccc(Cl)cc1,199 to 201 °C
15,O=C1NCC(Cc2ccccc2)O1 (stereo unspecified),104 to 105 °C
16,Cn1cc(-c2ccccc2)c(=O)c(-c2cccc(C(=O)O)c2)c1,265 to 267 °C
17,CCOC(=O)C1=C(S(=O)(=O)Cl)CCCC1,31.5 to 32.5 °C
18,CC(C)Nc1cc(-c2nc[nH]n2)nc(Cl)c1-c1c(F)cccc1Cl,152 °C
19,CCOc1nc(NCc2ccco2)nc(Nc2ccc3[nH]cnc3c2)n1,110 to 112 °C
20,CCOC(=O)c1ccc(C2=CCCc3ccccc32)cc1,81 °C
21,Oc1ccc(CNc2ncncc2Cl)cc1,190 to 191 °C
22,CC(=O)NCc1ccc(C(C)Cl)cc1 (stereo unspecified),58 to 62 °C
23,Cc1cccc(C(=O)NCN2CCN(c3ncccc3C#N)CC2)c1,128 to 130 °C
24,CCCCCCCCCCCC(=O)NC(CCC(=O)O)C(=O)O (racemic),101 to 104 °C
25,O=C(OCc1ccccc1)N1CCc2ccccc2C12CCC(C(=O)O)(C(=O)O)CC2,199 to 200 °C
26,CC=CC(=O)NCc1ccccc1,112 to 114 °C

row,Compound,melting point
1,COC(=O)/C=C/n1cnc2c(OC)cccc2c1=O,203 to 208 °C
2,Cc1nc(-c2cccs2)c2nc(-c3ccccc3)cc-2[nH]1,178 to 179 °C
3,Cc1n[nH]c2ccc(-c3ccc4nnn(Cc5ccc6ncccc6c5)c4n3)cc12,246 to 249 °C
4,CS(=O)(=O)NC(=O)CC1(c2ccc(OCc3ccc4ccccc4n3)cc2)CCCC1,75 °C
5,CCOCc1nc2c(N)nc3c(c2n1NCCCNC(=O)N1CCOCC1)CCCC3,152 to 154 °C
6,Cc1cc(COc2nn(Cc3ccccc3)cc2CO)ccc1OCc1nc(-c2ccco2)oc1C,91 to 92 °C
7,COc1ccc(CNc2nc(Cl)ccc2C=O)cc1Cl,134 to 138 °C
8,CC(C)(C)c1cc(C[Si](C)(C)C)cc(C(C)(C)C)c1S,100 to 101 °C
9,CN1C(=O)C(C)(C)C(=O)Nc2cc(C=O)ccc21,208 to 210 °C
10,C=CCNC(=O)N1CC(OCc2cccc(C(F)(F)F)c2)C1,108 °C
11,CCCCCCCCCCOc1ccc(C(=O)Oc2ccc(OC(=O)[C@@H]3O[C@@H]3CCC)cc2)cc1Cl,66.4 °C
12,O=C(NCCCSc1ccncc1)c1ccccc1,120 to 121 °C
13,CCOC(=O)Cc1ccc(CCNS(=O)(=O)c2ccc(Cl)cc2)cc1,88 to 90 °C
14,COc1cc2c(cc1OC)CN(CCCCOc1ccc(NC(=O)c3nccc4ccccc34)cc1)CC2,122 to 123 °C
15,O=C(O)CCc1cn(Cc2ccc(OCc3ccc4ccccc4n3)cc2)nc1-c1ccccc1,147 to 148 °C
16,CO[C@]12C[C@@H](CCN3CCC(O)(c4ccc(Cl)cc4)CC3)CN(C)[C@@H]1Cc1c[nH]c3cccc2c13,133 to 139 °C
17,COC(=O)[C@@H]1[C@H](NCc2cc(OC(F)(F)F)ccc2OC)[C@H](c2ccccc2)N[C@@H]1C (relative stereo),81 to 82 °C
18,CCn1c(=O)c2c(nc(/C=C/c3cccc(OC(C)=O)c3)n2C)n(CC)c1=O,206 to 207 °C
19,Cc1c(C(=O)Nc2ccc(N3CCC(N4CCOCC4)CC3)c(C#N)c2)cnn1-c1ccccn1,251 °C
20,CCC1(C)OC(c2ccc(S(C)(=O)=O)cc2)=C(c2ccc(C(C)=O)cc2)C1=O (stereo unspecified),147 to 148 °C
21,O=c1[nH]c2cc(Cl)ccc2n1CCO,176 to 178 °C
22,O=C(O)COc1cccc(CSc2nc(-c3ccccc3)c(-c3ccccc3)[nH]2)c1,233 to 235 °C
23,CCCn1c(=O)[nH]c2cnc(-c3ccccc3)nc21,263 to 264 °C
